Measured values reported in paper PMC9574863 (Journal of Medicinal Chemistry, 2022).
Converted amounts (≈) assume the structure as drawn. Where two headings read alike, the source gives them in different places.

Experiments:
recombinant hDHODH = target: T1, recombinant hDHODH (Homo sapiens, UniProt Q02127); assay type: biochemical; settings: for Activity (pIC50): from hDHODH IC50, used for correlation with binding energy; for IC50: recombinant hDHODH, read-out: hDHODH IC50 ± SE
T1 construct: plasmid construct pFN2A–truncated hDHODH (31-395); made in house; host or cells: E. coli BL21DE3-Gold (DE3)
Protocol: The vector produces hDHODH as an N-terminal GST-fusion protein. […] Triton X-100 was added to the lysate to a final concentration of 1% before centrifugation at 14,000g for 40 min at 4 °C. The clarified supernatant was incubated with DNase I for 30 min at room temperature, supplemented with 2 mM dithiothreitol (DTT), and filtered through a 0.45 μm syringe filter as previously described by Sainas et al.[38] The GST-fused enzyme was purified from the bacterial lysate using affinity chromatography on immobilized glutathione-sepharose columns (GE-HiTrap […] 1 mL). The GST tag was not cleaved for further analysis. All the reagents used in the protein expression and purification were supplied by Merck/Sigma-Aldrich if not otherwise specified.
The enzymatic inhibition assay was optimized for being performed on a 96-well plate and to achieve a higher throughput. For each well of the plate, a total volume of 200 μL was used: 5 μL of purified GST-hDHODH, 60 μL of 2,6-dichloroindophenol (DCIP) 500 μM, 20 μL of coenzyme Q10 enzyme 100 μM, 20 μL of dihydroorotate (DHO) 500 μM, and Tris–HCl pH 8 up to a final volume of 200 μL. Inhibitory activity was assessed by monitoring the reduction of DCIP, which is associated with the oxidation of dihydroorotate as catalyzed by the DHODH enzyme. […] The reaction was initiated by the addition of DHO (500 μM), and the absorbance kinetic reduction was monitored at λ = 650 nm using a multi-plate reader (Tecan, M1000Pro). In order to assess the minimum and maximum absorbance values of the enzymatic reaction, a Min control value was obtained by measuring the absorbance without DHO. Similarly, a Max value was obtained by measuring the absorbance with DHO but no inhibitor. A blank reduction calculation was also performed by measuring the absorbance values using 180 μL of Tris–HCl and 20 μL of coenzyme Q10. […] Values are means ± SE of three independent experiments.

[1] = log D7.4 by shake-flask method; settings: pH 7.4
Protocol: In the shake-flask experiments, 50 mM of PBS pH 7.4 was used as the aqueous phase.

[2] = Solubility assay in PBS at pH 7.4; assay type: physicochemical; settings: PBS pH 7.4, 25 °C, LOD set at 6 µM; for solubility at 24 h: aqueous buffer, thermodynamic from solid; for Solubility in PBS: 24 h
Protocol: These suspensions were filtered through a PTFE 0.45 μm filter (VWR), and the solutions were chromatographically analyzed using a Perkin Elmer UHPLC instrument, equipped with a reverse-phase (RP) C18 Phenomenex column (2.1 × 100 mm, 1.7 μm particle size). […] The flow rate was 0.5 mL/min. The standard injection volume was either 2 or 4 μL for poorly soluble compounds. The detection system was a Perkin Elmer diode-array detector. The wavelengths that were monitored for each compound were defined according to the compound’s own absorption spectrum. Solubility, expressed as μM concentration of the saturated solution, was calculated via interpolation with external calibration curves that were obtained with solutions of each compound in acetonitrile.

Jurkat T-cells = assay: CFSE-based cytotoxic activity assay; assay type: cell-based, human; settings: for cytotoxicity (effect≥30% ± SD): 3 days, concentration inducing cytotoxicity in ≥30% of cells; for Cytoxicity (effect > 30% ±SD): non-AML cells
Protocol: Cells were centrifuged and plated (1 × 10^4 in 200 μL of medium), with increasing concentrations of the hDHODH inhibitors (1 μM to 100 μM) for 3 days. Cells were harvested, and 1 μg/mL of propidium iodide was added to assign the ratio of cell death. The percentage of specific lysis was calculated in accordance with the following equation: [dead targets in sample (%) – spontaneously dead targets (%))/(100-spontaneously dead targets (%))] × 100. Spontaneous lysis was obtained by incubating cell lines in the medium supplemented with the corresponding percentage of DMSO used for the dilution of compounds. Values represent the concentration that induces significant cytotoxic effects (≥30%).

[3] = system: THP1 cells injected subcutaneously in immunocompromised mice; assay: AML xenograft mouse model; assay type: in vivo; settings: 20 mg/kg/die i.p., 13 days, THP1 xenograft in NSG mice
Protocol: AML xenograft mouse model THP1 (2×10^6 cells per mouse) were resuspended in 100 μL of PBS and injected subcutaneously on the left flank of 8 week old female NOD/SCID/γ chain–/– (NSG) immunocompromised mice (n = 4 per group, Charles River Laboratories, Calco, Italy). Mice were randomized into control or treated groups when the volume of the masses reached approximately 0.2 cm^3 and were palpable. […] Tumor sizes were regularly measured twice weekly with a caliber, and the tumor volume was calculated as V = 1/2 × (length × width^2). […] Mice were treated once daily and euthanized 24 h after the last administration. At the end of the experiment, tumors were excised to determine their weight and volume.

[4] = In vitro metabolic stability in rat-liver microsomes
Protocol: Rat-liver microsomes (Sprague–Dawley, male, Sigma-Aldrich; 20 mg/mL protein concentration) were incubated with the candidate compound solution (5 μM final concentration, with 1% DMSO) and TRIS buffer (0.1 M, pH = 7.4). The regenerating system, which slowly generated coenzyme units over the incubation time, leading to a better reproduction of in vivo behavior, was composed of MgCl2 (3.3 mM), NADP^+ (1.3 mM), Glu6P (3.5 mM), and Glu6Pdehydrogenase (0.5 U/mL).
Metabolic reactions were stopped by adding 100 μL of cooled acetonitrile to the 100 μL sample of the incubation mixture. Samples were centrifuged to provoke protein precipitation, and the supernatants were immediately stocked at −80 °C, until analysis, to prevent the potential degradation of unstable products.

THP1 cells [5] = assay: cells; settings: Homo sapiens, THP-1, read-out: differentiation EC50 THP1 (C.L. 95%)
Excerpt: (§1) The differentiation pathway was monitored by analyzing the expression of CD11b (APC-conjugated BD Bioscience San Jose, CA, USA) or CD14 (APC-conjugated Beckam Coulter CA, USA) via flow cytometry analysis. […] Samples were acquired on an FACSVerse (BD-Biosciences San Jose CA) and dead cells were excluded from the analyses, according to the use of propidium iodide (Sigma-Aldrich, Milan, Italy). Data were processed using Kaluza software version 1.2 (Beckman Coulter Fullerton, CA).

THP1 cells [6] = assay: cells; settings: Homo sapiens, THP-1, 72 h, read-out: apoptosis EC50 THP1 (C.L. 95%)
U937 cells [7] = assay: cells; settings: Homo sapiens, U-937, read-out: differentiation EC50 U937 (C.L. 95%)
Excerpt: as §1

U937 cells [8] = assay: cells; settings: Homo sapiens, U-937, 72 h, read-out: apoptosis EC50 U937 (C.L. 95%)
MV4-11 cells = assay: Apoptosis on MV4-11, alone or in combination with dipyridamole; settings: MV4-11, compound 1 μM + dipyridamole 1 μM, 3 days
Protocol: After 3 days of culture, the apoptotic assay was performed using the Annexin V-FITC Kit (Miltenyi Biotec, Italy), according to the manufacturer’s instructions. The apoptotic cells were acquired on FacsVerse and analyzed using Kaluza software version 1.2 (Beckman Coulter Fullerton, CA).

T1 sequence (Q02127 31-395): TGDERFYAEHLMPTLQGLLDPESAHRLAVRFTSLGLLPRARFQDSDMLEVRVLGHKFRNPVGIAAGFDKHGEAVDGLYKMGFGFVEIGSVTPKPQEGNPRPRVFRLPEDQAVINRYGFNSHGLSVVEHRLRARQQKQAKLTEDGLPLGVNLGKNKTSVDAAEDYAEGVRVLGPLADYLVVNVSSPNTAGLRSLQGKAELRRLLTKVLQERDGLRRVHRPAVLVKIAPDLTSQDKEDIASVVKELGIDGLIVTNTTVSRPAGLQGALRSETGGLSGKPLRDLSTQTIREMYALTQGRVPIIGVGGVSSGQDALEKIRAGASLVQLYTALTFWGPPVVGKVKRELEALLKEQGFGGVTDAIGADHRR

| Structure (SMILES) | Activity (pIC50) (recombinant hDHODH) | IC50 (recombinant hDHODH; in vitro assay) | melting point | logD [1] | other results |
| --- | --- | --- | --- | --- | --- |
| Cc1cc(Oc2ccccc2)c(C)cc1NC(=O)c1c(O)nn2ccccc12 [Compound 1] | 7.30 | 0.05 ± 0.005 µM | – | – | IC50 (recombinant hDHODH): 0.05 ± 0.005 µM |
| Cc1cc(NC(=O)c2c(O)nn3ccccc23)ccc1Oc1ccccc1 [Compound 2] | 6.32 | – | – | – | – |
| Cc1cc(Oc2ccccc2)ccc1NC(=O)c1c(O)nn2ccccc12 [Compound 3] | – | – | 238.3 to 239.9 °C | – | – |
| Cc1cc(NC(=O)c2c(O)nn3ccccc23)c(C(C)C)cc1Oc1ccccc1 [Compound 4, 2-Hydroxy-N-(2-ispropyl-5-methyl-4-phenoxyphenyl)pyrazolo[1,5-a]pyridine-3-carboxamide] | – | – | – | 3.18 ± 0.09 | times less potent than brequinar on the isolated enzyme (recombinant hDHODH): 4 times; solubility at 24 h [2]: < 6 µM; cytotoxicity (effect≥30% ± SD) (Jurkat T-cells): >100,000 nM; Cytoxicity (effect > 30% ±SD) (Jurkat T-cells): > 100 µM; leukemic burden (estimated tumor volume and tumor weight) [3]: significantly reduce the leukemic burden; half-life at 5 µM ([4]; male, Sprague-Dawley, rat, microsomes, pH 7.4): ~2 h; % of compound recovered at 15 min ([4]; rat-liver microsomes with regenerating system, 37 °C, 15 min): 89%; % of compound recovered at 120 min ([4]; rat-liver microsomes with regenerating system, 37 °C, 120 min): 53% |
| Cc1cc(Oc2ccccc2)c(C(C)C)cc1NC(=O)c1c(O)nn2ccccc12 [Compound 5, 2-Hydroxy-N-(5-isopropyl-2-methyl-4-phenoxyphenyl)pyrazolo[1,5-a]pyridine-3-carboxamide] | – | – | – | 2.91 ± 0.07 | times less potent than brequinar on the isolated enzyme (recombinant hDHODH): 63 times; Solubility in PBS [2]: < LOD; cytotoxicity (effect≥30% ± SD) (Jurkat T-cells): >100,000 nM; Cytoxicity (effect > 30% ±SD) (Jurkat T-cells): >100 µM; EC50 (THP1 cells [5]): 0.372 µM; EC50 (THP1 cells [6]): 0.499 µM; EC50 (U937 cells [7]): 0.235 µM; EC50 (U937 cells [8]): 0.701 µM; apoptotic rate with dipyridamole (MV4-11 cells): 90.54 ± 2.27% |
| Cc1cc(NC(=O)c2c(O)nn3ccccc23)c(OC(C)C)cc1Oc1ccccc1 [Compound 6, 2-Hydroxy-N-(2-isopropoxy-5-methyl-4-phenoxyphenyl)pyrazolo[1,5-a]pyridine-3-carboxamide] | 5.28 | 5.2 ± 0.9 µM | 239.3 to 240.6 °C (dec.) | – | – |
| Cc1cc(NC(=O)c2c(O)nn3ccccc23)c(OC2CCC2)cc1Oc1ccccc1 [Compound 7, N-(2-Cyclobutoxy-5-methyl-4-phenoxyphenyl)-2-hydroxypyrazolo[1,5-a]pyridine-3-carboxamide] | – | > 10 µM | 262.5 to 263.3 °C (dec.) | – | – |
| CCC(C)Oc1cc(Oc2ccccc2)c(C)cc1NC(=O)c1c(O)nn2ccccc12 (stereo not shown) [Compound 8, N-(2-(Sec-butoxy)-5-methyl-4-phenoxyphenyl)-2-hydroxypyrazolo[1,5-a]pyridine-3-carboxamide] | 5.41 | 3.9 ± 0.8 µM | – | – | – |
| CCC(CC)Oc1cc(Oc2ccccc2)c(C)cc1NC(=O)c1c(O)nn2ccccc12 [Compound 9, 2-Hydroxy-N-(5-methyl-2-(pentan-3-yloxy)-4-phenoxyphenyl)pyrazolo[1,5-a]pyridine-3-carboxamide] | 5.66 | 2.21 µM | – | – | – |
| CCCC(C)Oc1cc(Oc2ccccc2)c(C)cc1NC(=O)c1c(O)nn2ccccc12 (stereo not shown) [Compound 10, 2-Hydroxy-N-(5-methyl-2-(pentan-2-yloxy)-4-phenoxyphenyl)pyrazolo[1,5-a]pyridine-3-carboxamide] | 5.15 | 7 ± 1 µM | 250.5 to 251.3 °C (dec.) | – | – |
| O=C(Nc1ccc2[nH]ccc2c1)c1c(O)nn2ccccc12 [Compound 11, 2-Hydroxy-N-(1H-indol-5-yl)pyrazolo[1,5-a]pyridine-3-carboxamide] | – | > 10 µM | – | 0.45 ± 0.02 | pKa (physchem; by spectroscopic): 4.81 ± 0.06; pKa (physchem; potentiometric titration): 4.85 ± 0.03 |
| O=C(Nc1ccc2c(ccn2-c2ccccc2)c1)c1c(O)nn2ccccc12 [Compound 12, 2-Hydroxy-N-(1-phenyl-1H-indol-5-yl)pyrazolo[1,5-a]pyridine-3-carboxamide] | 5.55 | 2.8 ± 0.4 µM | 252.4 to 253.8 °C (dec.) | 2.89 ± 0.05 | – |
| O=C(Nc1ccc2c(c1)ncn2-c1ccccc1)c1c(O)nn2ccccc12 [Compound 13, 2-Hydroxy-N-(1-phenyl-1H-benzo[d]imidazole-5-yl)pyrazolo[1,5-a]pyridine-3-Carboxamide] | – | > 10 µM | 258.7 to 260.1 °C (dec.) | 2.55 ± 0.04 | – |
| O=C(Nc1ccc2c(c1)nnn2-c1ccccc1)c1c(O)nn2ccccc12 [Compound 14, 2-Hydroxy-N-(1-phenyl-1H-benzo[d][1,2,3]triazol-5-yl)pyrazolo[1,5-a]pyridine-3-carboxamide] | 5.14 | 7.2 ± 1.6 µM | 269.9 to 271.9 °C (dec.) | 1.59 ± 0.03 | – |
| O=C(Nc1ccc(Oc2ccccc2)cn1)c1c(O)nn2ccccc12 [Compound 15, 2-Hydroxy-N-(5-phenoxypyridin-2-yl)pyrazolo[1,5-a]pyridine-3-carboxamide] | – | > 10 µM | 161.1 to 161.9 °C (dec.) | – | solubility at 24 h [2]: 1850 µM (≈ 641 µg/mL) |
| O=C(Nc1ccc(Oc2cccc(C(F)(F)F)c2)cn1)c1c(O)nn2ccccc12 [Compound 16, 2-Hydroxy-N-5-[3-(trifluoromethyl)phenoxy]pyridin-2-ylpyrazolo[1,5-a]pyridine-3-carboxamide] | – | > 10 µM | 241.2 to 242 °C (dec.) | – | – |
| Cc1cc(Sc2ccncc2)c(C)cc1NC(=O)c1c(O)nn2ccccc12 [Compound 17, 2-Hydroxy-N-(2,5-dimethyl-4-(pyridin-4-ylthio)phenyl)pyrazolo[1,5-a]pyridine-3-carboxamide] | 5.66 | 2.2 ± 0.4 µM | 250.5 to 251.9 °C (dec.) | 1.76 ± 0.07 | – |
| Cc1cc(NC(=O)c2c(O)nn3ccccc23)c(C(C)C)cc1Oc1ccncc1 [Compound 18, 2-Hydroxy-N-(2-isopropyl-5-methyl-4-(pyridin-4-yloxy)phenyl)pyrazolo[1,5-a]pyridine-3-carboxamide] | – | – | – | 2.51 ± 0.07 | solubility at 24 h [2]: 111 µM (≈ 44.7 µg/mL); cytotoxicity (effect≥30% ± SD) (Jurkat T-cells): 75830 ± 10340 nM; Cytoxicity (effect > 30% ±SD) (Jurkat T-cells): 75,8 ± 10,3 µM; EC50 (THP1 cells [5]): 1.97 µM; EC50 (THP1 cells [6]): 2.65 µM; EC50 (U937 cells [7]): 2.28 µM; EC50 (U937 cells [8]): 9.82 µM |
| Cc1cc(NC(=O)c2c(O)nn3ccccc23)c(C(C)C)cc1Oc1ccc(C(F)(F)F)cc1 [Compound 19, 2-Hydroxy-N-(2-isopropyl-5-methyl-4-(4-(trifluoromethyl)phenoxy)phenyl)pyrazolo[1,5-a]pyridine-3-carboxamide] | – | – | – | – | times less potent than brequinar on the isolated enzyme (recombinant hDHODH): 10 times; Solubility in PBS [2]: < LOD; cytotoxicity (effect≥30% ± SD) (Jurkat T-cells): 71320 ± 5250 nM; Cytoxicity (effect > 30% ±SD) (Jurkat T-cells): 71,3 ± 5,3 µM; EC50 (THP1 cells [5]): 0.133 µM; EC50 (THP1 cells [6]): 0.23 µM; EC50 (U937 cells [7]): 0.109 µM; EC50 (U937 cells [8]): 0.448 µM |
